Measured values taken from patent publication US11192882B2, “Crystal form of small molecule immune compound, preparation method thereof and pharmaceutical composition containing the same” (SHENZHEN NEPTUNUS PHARMACEUTICAL RESEARCH INSTITUTE CO., …, priority 2018, dated 2021).
Each block holds one compound with its values, some of them ahead of it.

Experiment: Stress testing (accelerated test for 10 days) of the solid: crystal form B and crude product
Format: physicochemical
Details: for Purity compared with day 0 (in words): accelerated test for 10 days
Description: Detection instrument: Agilent 1260 series (U.S.)
Chromatographic column: Waters Sunfire C18;
Mobile phase A: water-mobile phase acetonitrile B (80:20);
Column temperature: 40° C.; Detection wavelength: 390 nm.
Detection basis: High performance liquid chromatography method, Pharmacopoeia of the People's Republic of China, Part II Appendix VD
The obtained crystal form B was subjected to stability studies (accelerated test for 10 days), to compare the data of purity, maximum single impurity and total impurities of the new crystal form under the conditions of 60° C., humidity 92.5%, and light irradiation with the data on day 0.
The crude product of (3Z,6Z)-3-[((E)-3-(5-tert-butyl)-1H-imidazolyl-4-yl)meth ylene]-6-((E)-3-(3-fluorophenyl)-2-propenylene)piperazine-2,5-dione was subjected to stability studies (accelerated test for 10 days), to compare the data of purity, maximum single impurity of the crude product stored at 40° C., 60° C. to the data on day 0.

[1] = Day 10, sample 1, no stress condition given

- Purity compared with crystal form B under the same conditions (in words) (60° C., day 5 and day 10): lower than that of the crystal form B
- Content (%) (crude product, 40° C. Day 5): 99.08%
- Maximum single impurity (%) (crude product, 40° C. Day 5): 0.25(RRT: 0.95) %
- Content (%) (crude product, 40° C. Day 10): 98.68%
- Maximum single impurity (%) (crude product, 40° C. Day 10): 0.50(RRT: 0.95) %
- Content (%) (crude product, 60° C. Day 5): 96.89%
- Maximum single impurity (%) (crude product, 60° C. Day 5): 1.14(RRT: 0.91) %
- Content (%) (crude product, 60° C. Day 10): 95.27%
- Maximum single impurity (%) (crude product, 60° C. Day 10): 1.88(RRT: 0.91) %
- Content (%) (crude product, Day 0): 99.49%
- Maximum single impurity (%) (crude product, Day 0): 0.24(RRT: 0.95) %
Compound: CC(C)(C)c1nc[nH]c1/C=c1\[nH]c(=O)/c(=C/C=C/c2cccc(F)c2)[nH]c1=O [Crude product, (3Z,6Z)-3-[((E)-3-(5-tert-butyl)-1H-imidazolyl-4-yl)methylene]-6-((E)-3-(3-fluorophenyl)-2-propenylene)piperazine-2,5-dione]

- Maximum single impurity (%) (Day 0): 0.24 (RRT: 0.95) %
- Purity (%) (Day 0): 99.50%
- Total impurities (%) (Day 0): 0.50%
- Maximum single impurity (%) (Day 5, 60° C.): 0.24 (RRT: 0.95) %
- Purity (%) (Day 5, 60° C.): 99.50%
- Total impurities (%) (Day 5, 60° C.): 0.50%
- Maximum single impurity (%) (Day 5, humidity 92.5%): 0.24 (RRT: 0.95) %
- Purity (%) (Day 5, humidity 92.5%): 99.50%
- Total impurities (%) (Day 5, humidity 92.5%): 0.50%
- Maximum single impurity (%) (Day 5, light irradiation): 0.26 (RRT: 0.95) %
- Purity (%) (Day 5, light irradiation): 99.40%
- Total impurities (%) (Day 5, light irradiation): 0.60%
- Maximum single impurity (%) (Day 10, 60° C.): 0.24 (RRT: 0.95) %
- Purity (%) (Day 10, 60° C.): 99.50%
- Total impurities (%) (Day 10, 60° C.): 0.50%
- Maximum single impurity (%) (Day 10, humidity 92.5%): 0.24 (RRT: 0.95) %
- Purity (%) (Day 10, humidity 92.5%): 99.50%
- Total impurities (%) (Day 10, humidity 92.5%): 0.50%
- Maximum single impurity (%) (Day 10, light irradiation): 0.26 (RRT: 0.95) %
- Purity (%) (Day 10, light irradiation): 99.40%
- Total impurities (%) (Day 10, light irradiation): 0.60%
- Maximum single impurity (%) [1]: 0.24 (RRT: 0.95) %
- Purity (%) [1]: 99.50%
- Total impurities (%) [1]: 0.50%
- Purity compared with day 0 (in words) (light irradiation): slightly reduced
- Purity compared with day 0 (in words) (other conditions (60° C., humidity 92.5%)): stable
Compound: CC(C)(C)c1nc[nH]c1/C=c1\[nH]c(=O)/c(=C/C=C/c2cccc(F)c2)[nH]c1=O [crystal form B, (3Z,6Z)-3-[((E)-3-(5-tert-butyl)-1H-imidazolyl-4-yl)methylene]-6-((E)-3-(3-fluorophenyl)-2-propenylene)piperazine-2,5-dione]
